A short description of this data set: GHS categories as the set defines them, by LD50: 1 up to 5, 2 up to 50, 3 up to 300, 4 up to 2000, 5 above 2000 mg/kg. As to conditions: rat; in vivo; po.

Where a SMILES comes first, the peptide text is derived from it. [ ]: non-standard residue; d: D form. The star is where a group is joined. Sta = CC(C)C[C@H](N)[C@@H](O)CC(=O)O; Isovaleryl = CC(C)CC(=O)*

In the case of `CO/N=C(\C(=O)N[C@@H]1C(=O)N2C(C(=O)OCOC(=O)C(C)(C)C)=C(/C=C\c3scnc3C)CS[C@H]12)c1csc(N)n1`, the GHS category stood at 5. Consider `COc1ccccc1NC(=O)c1cc2ccccc2cc1O`, for which the GHS category is reported as 5. Next, `CC1CCCO1` (configuration not stated): 4; `CC1(C)O[C@@H]2C[C@H]3[C@@H]4C[C@H](F)C5=CC(=O)C=C[C@]5(C)[C@@]4(F)[C@@H](O)C[C@]3(C)[C@]2(C(=O)CO)O1`: 5; `COc1cc(OC)nc(NC(=O)NS(=O)(=O)c2ncccc2OCC(F)(F)F)n1`: 5. Under `CC(C)CCCCCCOC(=O)C1CCCCC1C(=O)OCCCCCCC(C)C` (configuration not stated) stands 5; under `C/C(=C(\CCOC(=O)C(C)C)SS/C(CCOC(=O)C(C)C)=C(/C)N(C=O)Cc1cnc(C)nc1N)N(C=O)Cc1cnc(C)nc1N`, 5; under `OCC(O)C1OC(c2ccco2)OC(CO)C1O` (configuration not stated), 5. Under `CC1COC(Cn2cncn2)(c2cc3cc(Cl)cc(Cl)c3o2)O1` (configuration not stated) stands 4. On to `O=c1[nH]sc2cc(Cl)ccc12`, for which the GHS category is reported as 5.

Molecule `Clc1ccc2c(n1)C(c1ccccc1Cl)=NCc1nncn1-2` showed a GHS category of 5. As for `CC[C@H]1OC(=O)C[C@@H](O)[C@H](C)[C@@H](O[C@@H]2O[C@H](C)[C@@H](O[C@H]3C[C@@](C)(O)[C@@H](O)[C@H](C)O3)[C@H](N(C)C)[C@H]2O)[C@@H](CC=O)C[C@@H](C)C(=O)C=CC(C)=CC1CO[C@@H]1O[C@H](C)[C@@H](O)[C@@H](OC)[C@H]1OC` (some centres not stated), the GHS category is listed as 5. Next, `COc1cccc(OC)c1C(=O)O`: 4. Under `CCOc1ccc(OC)cc1-c1nc(=O)c2cc(C(=O)O)ccc2[nH]1` stands 4; under `CCN(CCO)N=O`, 5; under `COc1ccc(CC(C)NCC(O)c2ccc(O)c(CO)c2)cc1` (configuration not stated), 4. Regarding `CCCCCCCCCCCC(=O)OC`, the GHS category amounted to 5. As to `CN1C2CCC1CC(OS(C)(=O)=O)C2` (configuration not stated), the GHS category is listed as 4. Next, `CC(C)(C)C(O)/C=C/c1ccc2c(c1)OCO2` (configuration not stated): 5. Under `C1=CCC(c2ccccc2)CC1` (configuration not stated) stands 5.

In turn, `CCCC(=O)CC(=O)OCC` yielded a GHS category of 4. Next, `OC(c1ccccc1)c1ccc(-c2ccccc2)cc1` (configuration not stated): 5. Under `FC(F)CNCc1ccc(Cl)nc1` stands 5; under `Cc1cc(O)cc(C)c1S(C)(=O)=O`, 4. `CN(C(=O)CC(=O)N(C)c1c(I)c(C(=O)NC(CO)C(O)CO)c(I)c(C(=O)NC(CO)C(O)CO)c1I)c1c(I)c(C(=O)NC(CO)C(O)CO)c(I)c(C(=O)NC(CO)C(O)CO)c1I` (configuration not stated) came in with a GHS category of 5. Under `CCN(CC)C(C)C(=O)c1ccccc1` (configuration not stated) stands 4; under `CSCC[C@H](NC(=O)CCSC(=O)c1ccccc1)C(=O)O`, 5. Next, `CCN(CC)CCC1=NC(=C2C=CC(=O)C=C2)NO1`: 5. Next, `CCC(CC)CC1(C(=O)O)CCCCC1`: 4; `CC(=O)OCC(=O)[C@@]1(O)CC[C@H]2[C@@H]3CCC4=CC(=O)CC[C@]4(C)[C@@]3(F)[C@@H](O)C[C@@]21C`: 4; `Nc1nc(=O)[nH]cc1F`: 5. Regarding `COCc1cnc(C2=NC(C)(C(C)C)C(=O)N2)c(C(=O)O)c1` (configuration not stated), the GHS category worked out at 5. Next, `COC(=O)N(OC)c1ccccc1COc1ccn(-c2ccc(Cl)cc2)n1`: 5; `O=C1COc2cc(C(=O)c3ccccc3)ccc2N1`: 5; `CC=CCCC1CCCC(=O)O1` (configuration not stated): 5. Next, `CCCCCOC(=O)CCCC`: 5. The molecule `CCc1cccc(CC)c1NC(=O)c1sc(N)nc1C` displayed a GHS category of 4. Under `COC(=O)c1ccccc1S(=O)(=O)NC(=O)Nc1nc(C)cc(C)n1` stands 5. As for `CON=C(C(=O)N[C@@H]1C(=O)N2C(C(=O)OC(C)OC(C)=O)=C(COC(N)=O)CS[C@H]12)c1ccco1` (some centres not stated), the GHS category stood at 5. With `C1CCCCCC2=C(CCCC1)CCCO2`, the GHS category came to 5. Regarding `C=CCOc1c(Br)cc(C(C)(C)c2cc(Br)c(OCC=C)c(Br)c2)cc1Br`, the GHS category was found to be 5. Under `O=C(O)CNC(c1ccccc1)c1ccc(Cl)c(Cl)c1` (configuration not stated) stands 4.

Consider `C=C(C)C1CCC(C)C(OC(C)=O)C1` (configuration not stated), for which the GHS category was found to be 5. Regarding `CC(C(=O)C(N)=O)c1ccc(N2Cc3ccccc3C2=O)cc1` (configuration not stated), the GHS category was 5. As to `O=C1OC(CN2CCOCC2)CC12CC(CN1CCOCC1)OC2=O` (configuration not stated), the GHS category is 5.

`CCCCOC(=O)C(C)C` returned a GHS category of 5. `CCCS(=O)(=O)Nc1ccc(F)c(C(=O)O)c1F` gave a GHS category of 5. Next, `CC=CCC1=C(C)CCC1`: 5; `CC(=O)N(C)C(=O)Oc1cccc2c1OC(C)(C)O2`: 4.

As to `CC(C)CC(=O)N[C@H](C(=O)N[C@H](C(=O)N[C@@H](CC(C)C)[C@@H](O)CC(=O)N[C@@H](C)C(=O)N[C@@H](CC(C)C)[C@@H](O)CC(=O)O)C(C)C)C(C)C` (Isovaleryl-VV[Sta]A[Sta]-OH), the GHS category is reported as 5. Next, `CC(C)OP(=O)(O)Oc1ccccc1`: 5.

For `CCCC(=O)OCCC(C)C`, the GHS category stood at 5.

On to `C=C(CC)CCCC(C)(C)OC(C)=O`, for which the GHS category is given as 5.

`CCCCCCCCOCCCCCCCC` returned a GHS category of 5.

Molecule `O=C1CCC(N2C(=O)c3ccccc3C2=O)C(=O)N1CN1CCOCC1` (configuration not stated) showed a GHS category of 5.

Take `CCCC(=O)c1ccc2c(c1)OC(C)C(=O)N2C` (configuration not stated): the GHS category worked out at 5. Next, `CC=CC(=O)OC/C=C(\C)CCC=C(C)C`: 5; `CC(=O)OCC(C)=CCCC1(C)C2CC3C(C2)C31C` (configuration not stated): 5; `C=CCCCCCCCCC(=O)NCC(=O)O`: 5.

The molecule `O=C(O)c1cc(O)c2c3nc4ccccc4oc-3cc(=O)c2n1` showed a GHS category of 5. Next, `CCCC(=O)O[C@]1(C(=O)COC(C)=O)CC[C@H]2[C@@H]3C[C@H](F)C4=CC(=O)C=C[C@]4(C)[C@@]3(F)[C@@H](O)C[C@@]21C`: 5; `Cc1cc(C(C)(C)C)c(OP2COC3(COP(Oc4c(C(C)(C)C)cc(C)cc4C(C)(C)C)OC3)OC2)c(C(C)(C)C)c1` (configuration not stated): 5.

Consider `CSCC[C@H](NC(=O)[C@H](Cc1c[nH]c2ccccc12)NC(=O)CCNC(=O)OC(C)(C)C)C(=O)N[C@@H](CC(=O)O)C(=O)N[C@@H](Cc1ccccc1)C(N)=O`, for which the GHS category was 3.

As to `CNC(=O)Oc1cccc2c1OCO2`, the GHS category turned out to be 3. For the molecule `COC(=O)c1ccc(C(=O)OC)c([N+](=O)[O-])c1`, the GHS category was 5. Molecule `CC1(C)S[C@@H]2[C@H](NC(=O)[C@H](N)c3ccc(O)cc3)C(=O)N2[C@H]1C(=O)O` came in with a GHS category of 5.

`CC(C)C(O)C(C)(C)CO` (configuration not stated): the GHS category was 5. `COC(=O)C(F)(F)C(F)(F)C(F)(F)OC(F)=C(F)F` came in with a GHS category of 3.

In turn, `CCCC(CCC)C(=O)Oc1cc(C(C)C)ccc1C` returned a GHS category of 5.

With `CN1C(=O)CCc2c(OCCCN3CCC(Cc4ccccc4)CC3)cccc21`, the GHS category amounted to 4.

Molecule `CCOc1ccc(Cc2cc([C@@H]3O[C@H](COC(C)=O)[C@@H](OC(C)=O)[C@H](OC(C)=O)[C@H]3OC(C)=O)ccc2Cl)cc1` yielded a GHS category of 5.

`O=C(Nc1cc(Cl)c(NC(=O)c2cc3ccccc3c(N=Nc3cc(C(F)(F)F)ccc3Cl)c2O)cc1Cl)c1cc2ccccc2c(N=Nc2cc(C(F)(F)F)ccc2Cl)c1O` displayed a GHS category of 5. Under `CCOC(=O)C(=O)Nc1nc(-c2ccc(OC)cc2)cs1` stands 5; under `CC(C)(C)c1ccc(OC(=O)C2CCC(CN=C(N)N)CC2)cc1` (configuration not stated), 2; under `CCC1(CO)COC1`, 5. Next, `O=C1OCCN1N=Cc1c(N2CCCCCC2)nc2ccccn2c1=O`: 4.

In turn, `O=C1c2ccccc2C(=O)C1c1ccc2ccccc2n1` had a GHS category of 5.

As to `FC(F)(F)c1cccc(-n2nc(OCCN3CCCCC3)c3cccnc32)c1`, the GHS category amounted to 4. Under `NC[C@H]1O[C@H](O[C@H]2[C@H](O)[C@@H](O[C@H]3O[C@H](CO)[C@@H](O)[C@H](N)[C@H]3O)[C@H](N)C[C@@H]2N)[C@H](N)[C@@H](O)[C@@H]1O` stands 5.

`COC(=O)CSP(=S)(OC)OC` displayed a GHS category of 5. Under `Brc1cc(Br)c(Oc2nc(Oc3c(Br)cc(Br)cc3Br)nc(Oc3c(Br)cc(Br)cc3Br)n2)c(Br)c1` stands 5; under `O=S(O)c1ccc(Cl)cc1`, 4; under `Cn1c(CCCC(=O)O)nc2cc(N(CCCl)CCCl)ccc21`, 3.

Regarding `CC[C@H]1CO[C@@](Cn2ccnc2)(c2cc3cc(Cl)cc(Cl)c3o2)O1`, the GHS category turned out to be 4. Next, `CC1=NN(c2cccc(S(=O)(=O)O)c2)C(=O)C1/N=N/c1cc(Cl)c(C)cc1S(=O)(=O)O` (configuration not stated): 5; `Cc1c(N)nc(C(CC(N)=O)NCC(N)C(N)=O)nc1C(=O)NC(C(=O)NC(C)C(O)C(C)C(=O)NC(C(=O)NCCc1nc(-c2nc(C(=O)NCCCN[C@@H](C)c3ccccc3)cs2)cs1)C(C)O)C(O[C@@H]1O[C@@H](CO)[C@@H](O)[C@H](O)[C@@H]1O[C@H]1O[C@H](CO)[C@@H](O)[C@H](OC(N)=O)[C@@H]1O)c1c[nH]cn1` (some centres not stated): 5; `CCN(Cc1cccc(S(=O)(=O)O)c1)c1ccc(C(=C2C=CC(=[N+](CC)Cc3cccc(S(=O)(=O)[O-])c3)C=C2)c2ccccc2)cc1`: 5. Under `CCCCCCCC/C=C\CCCCCCCC(=O)OCC` stands 5. Under `C=CC=CC=CC=CC=CC=CC=CC` stands 5; under `CCCCOC(=O)CCC(C)=O`, 5; under `O=S(=O)(CCl)c1ccc(Br)cc1`, 5. `CCCCCCCCCCCCCCCc1cccc(OC(=O)c2cc(Cl)ccc2OC(N)=O)c1`: the GHS category is recorded as 5.

The values above are taken from the CATMoS acute toxicity set (Mansouri et al. 2021).
